According to US20170001990A1 (Genentech, Inc., priority 2014, published 2017):

Molecular target: Human recombinant carboxy-terminal his-tagged LDHA (amino acids 2-332) (Homo sapiens, UniProt P00338)
Assay: LDHA enzyme inhibition assay (NADH fluorescence)
Details: LDHA IC50 (μM), 1 nM LDHA, NADH and pyruvate, stereochemistry of tested sample given
Protocol: Test compounds were diluted in 100% DMSO with 1:3 serial dilutions. […] For the enzyme reaction, serially diluted compounds were added to a mixture of enzyme and NADH. […] Following the baseline read, pyruvate was added to the assay plates and the plates were read with excitation 340 nm and emission 480 nm for 10 minutes every 2.5 seconds. A suitable linear timeframe was selected (150-400 s) to calculate the slope of each concentration tested. The raw data were fitted to 4-parameter dose-response curves using the following equation:
fit=(A+((B−A)/(1+((C/x)̂D))))
inv=(C/((((B−A)/(y−A))−)̂(1/D)))
res=(y−fit) • where A=minimum y, B=maximum y, C=50% y max, and D=slope factor.
The curve bottom was set to the background rate (initial 5 second recording prior to addition of pyruvate) and curve top was set to no inhibitor (DMSO only) control wells rate.
The compounds of the present invention were tested for their capacity to inhibit LDHA activity and activation as described in the enzyme inhibition assay described above.

| Structure (SMILES) | IC50 |
| --- | --- |
| CC1(COc2cccc(C3(c4ccsc4)CC(=O)C(Sc4ccccc4Cl)C(=O)N3)n2)CC1 (single isomer, unassigned) [Example 206, 3-(2-chlorophenyl)sulfanyl-6-[6-[(1-methylcyclopropyl)methoxy]-2-pyridyl]-6-(3-thienyl)piperidine-2,4-dione] | 0.027 µM |
| CC(Oc1cccc(C2(c3ccsc3)CC(=O)C(Sc3ccccc3Cl)C(=O)N2)n1)C1CC1 (single isomer, unassigned) [Example 207, 3-(2-chlorophenyl)sulfanyl-6-[6-(1-cyclopropylethoxy)-2-pyridyl]-6-(3-thienyl) piperidine-2,4-dione] | 0.02 µM |
| O=C1CC(c2ccsc2)(c2cccc(OCCC3CCCCC3)n2)NC(=O)C1Sc1ccccc1Cl (single isomer, unassigned) [Example 208, 3-(2-chlorophenyl)sulfanyl-6-[6-(2-cyclohexylethoxy)-2-pyridyl]-6-(3-thienyl) piperidine-2,4-dione] | 0.149 µM |
| O=C1CC(c2ccsc2)(c2cccc(OCC3CCOCC3)n2)NC(=O)C1Sc1ccccc1Cl (single isomer, unassigned) [Example 209, 3-(2-chlorophenyl)sulfanyl-6-[6-(tetrahydropyran-4-ylmethoxy)-2-pyridyl]-6-(3-thienyl)piperidine-2,4-dione] | 0.006 µM |
| O=C1CCC(COc2cccc(C3(c4ccsc4)CC(=O)C(Sc4ccccc4Cl)C(=O)N3)n2)O1 (single isomer, unassigned) [Example 212, 3-(2-chlorophenyl)sulfanyl-6-[6-[(5-oxotetrahydrofuran-2-yl)methoxy]-2-pyridyl]-6-(3-thienyl)piperidine-2,4-dione] | 0.03 µM |
| O=C1CC(c2ccsc2)(c2cccc(Sc3ccc(F)cc3)n2)NC(=O)C1Sc1ccccc1Cl (single isomer, unassigned) [Example 213, 3-(2-chlorophenyl)sulfanyl-6-[6-(4-fluorophenyl)sulfanyl-2-pyridyl]-6-(3-thienyl)piperidine-2,4-dione] | 0.034 µM |
| CC(Oc1cccc(C2(c3ccsc3)CC(=O)C(Sc3ccccc3Cl)C(=O)N2)n1)C1CC1 (single isomer, unassigned) [Example 214, 3-(2-chlorophenyl)sulfanyl-6-[6-(1-cyclopropyl-ethoxy)-2-pyridyl]-6-(3-thienyl)piperidine-2,4-dione] | 0.017 µM |
| O=C1CC(c2ccsc2)(c2cccc(OCC3CC(F)(F)C3)n2)NC(=O)C1Sc1ccccc1Cl (single isomer, unassigned) [Example 215, 3-(2-chlorophenyl)sulfanyl-6-[6-[(3,3-difluorocyclo-butyl)methoxy]-2-pyridyl]-6-(3-thienyl)piperidine-2,4-dione] | 0.014 µM |
| O=C1CC(c2ccsc2)(c2cccc(Oc3cc(F)cc(CO)c3)n2)NC(=O)C1Sc1ccccc1Cl (single isomer, unassigned) [Example 216, 3-(2-chlorophenyl)sulfanyl-6-[6-[3-fluoro-5-(hydroxy-methyl)phenoxy]-2-pyridyl]-6-(3-thienyl)piperidine-2,4-dione] | 0.002 µM |
| O=C1CC(c2ccsc2)(c2cccc(OCC3CCCO3)n2)NC(=O)C1Sc1ccccc1Cl (single isomer, unassigned) [Example 221, 3-(2-chlorophenyl)sulfanyl-6-[6-(tetrahydrofuran-2-ylmethoxy)-2-pyridyl]-6-(3-thienyl)piperidine-2,4-dione] | 0.32 µM |
| O=C1CC(c2ccsc2)(c2cccc(OCC(F)F)n2)NC(=O)C1Sc1ccccc1Cl (single isomer, unassigned) [Example 223, 3-(2-chlorophenyl)sulfanyl-6-[6-(2,2-difluoroethoxy)-2-pyridyl]-6-(3-thienyl) piperidine-2,4-dione] | 0.057 µM |
| O=C1CC(c2ccsc2)(c2cccc(OCC3COC3)n2)NC(=O)C1Sc1ccccc1Cl (single isomer, unassigned) [Example 225, 3-(2-chlorophenyl)sulfanyl-6-[6-(oxetan-3-ylmethoxy)-2-pyridyl]-6-(3-thienyl) piperidine-2,4-dione] | 0.103 µM |
| CCOCCOc1cccc(C2(c3ccsc3)CC(=O)C(Sc3ccccc3Cl)C(=O)N2)n1 (single isomer, unassigned) [Example 227, 3-(2-chlorophenyl)sulfanyl-6-[6-(2-ethoxyethoxy)-2-pyridyl]-6-(3-thienyl) piperidine-2,4-dione] | 0.015 µM |
| COCCCOc1cccc(C2(c3ccsc3)CC(=O)C(Sc3ccccc3Cl)C(=O)N2)n1 (single isomer, unassigned) [Example 228, 3-(2-chlorophenyl)sulfanyl-6-[6-(3-methoxypropoxy)-2-pyridyl]-6-(3-thienyl) piperidine-2,4-dione] | 0.419 µM |
| O=C1CC(c2ccsc2)(c2cccc(OCC3CCC(CO)CC3)n2)NC(=O)C1Sc1ccccc1Cl (single isomer, unassigned) [Example 233, 3-((2-chlorophenyl)thio)-6-(6-((4-(hydroxymethyl)cyclohexyl)methoxy)pyridin-2-yl)-6-(thiophen-3-yl)piperidine-2,4-dione] | 0.017 µM |
| O=C1CC(c2ccsc2)(c2cccc(Oc3cc(F)cc(CO)c3)n2)NC(=O)C1Sc1ccccc1Cl (single isomer, unassigned) [Example 234, 3-(2-chlorophenyl)sulfanyl-6-[6-[3-fluoro-5-(hydroxy-methyl)phenoxy]-2-pyridyl]-6-(3-thienyl)piperidine-2,4-dione] | 0.004 µM |
| O=C1CC(c2ccsc2)(c2cccc(OCC3CCCO3)n2)NC(=O)C1Sc1ccccc1Cl (single isomer, unassigned) [Example 235, 3-(2-chlorophenyl)sulfanyl-6-[6-(tetrahydrofuran-2-ylmethoxy)-2-pyridyl]-6-(3-thienyl)piperidine-2,4-dione] | 0.021 µM |
| O=C1CC(c2ccsc2)(c2cccc(OCC3COC3)n2)NC(=O)C1Sc1ccccc1Cl (single isomer, unassigned) [Example 236, 3-(2-chlorophenyl)sulfanyl-6-[6-(oxetan-3-ylmethoxy)-2-pyridyl]-6-(3-thienyl) piperidine-2,4-dione] | 0.025 µM |
| COCCCOc1cccc(C2(c3ccsc3)CC(=O)C(Sc3ccccc3Cl)C(=O)N2)n1 (single isomer, unassigned) [Example 237, 3-(2-chlorophenyl)sulfanyl-6-[6-(3-methoxypropoxy)-2-pyridyl]-6-(3-thienyl) piperidine-2,4-dione] | 0.094 µM |
| O=C1CC(c2ccsc2)(c2cccc(OCC3CCCO3)n2)NC(=O)C1Sc1ccccc1Cl (single isomer, unassigned) [Example 238, 3-(2-chlorophenyl)sulfanyl-6-[6-(tetrahydrofuran-2-ylmethoxy)-2-pyridyl]-6-(3-thienyl)piperidine-2,4-dione] | 0.018 µM |
| O=C1CC(c2ccsc2)(c2cccc(OCC3CCCO3)n2)NC(=O)C1Sc1ccccc1Cl (single isomer, unassigned) [Example 239, 3-(2-chlorophenyl)sulfanyl-6-[6-(tetrahydrofuran-2-ylmethoxy)-2-pyridyl]-6-(3-thienyl)piperidine-2,4-dione] | 0.015 µM |
| CC(CC1CC1)Oc1cccc(C2(c3ccsc3)CC(=O)C(Sc3ccccc3Cl)C(=O)N2)n1 (single isomer, unassigned) [Example 241, 3-(2-chlorophenyl)sulfanyl-6-[6-(2-cyclopropyl-1-methyl-ethoxy)-2-pyridyl]-6-(3-thienyl)piperidine-2,4-dione] | 0.003 µM |
| O=C1CC(c2ccsc2)(c2cccc(OCC3CCCC3)n2)NC(=O)C1Sc1ccccc1Cl (single isomer, unassigned) [Example 243, 3-(2-chlorophenyl)sulfanyl-6-[6-(cyclopentylmethoxy)-2-pyridyl]-6-(3-thienyl) piperidine-2,4-dione] | 0.001 µM |
| O=C1CC(c2ccsc2)(c2cccc(OCC3CCC(CO)CC3)n2)NC(=O)C1Sc1ccccc1Cl (single isomer, unassigned) [Example 244, 3-(2-chlorophenyl)sulfanyl-6-[6-[[4-(hydroxymethyl)cyclohexyl]methoxy]-2-pyridyl]-6-(3-thienyl) piperidine-2,4-dione] | 0.023 µM |
| O=C1CC(c2ccsc2)(c2cccc(OCC(F)F)n2)NC(=O)C1Sc1ccccc1Cl (single isomer, unassigned) [Example 245, 3-(2-chlorophenyl)sulfanyl-6-[6-(2,2-difluoroethoxy)-2-pyridyl]-6-(3-thienyl) piperidine-2,4-dione] | 0.018 µM |
| CC(CC1CC1)Oc1cccc(C2(c3ccsc3)CC(=O)C(Sc3ccccc3Cl)C(=O)N2)n1 (single isomer, unassigned) [Example 251, 3-(2-chlorophenyl)sulfanyl-6-[6-(2-cyclopropyl-1-methyl-ethoxy)-2-pyridyl]-6-(3-thienyl) piperidine-2,4-dione] | 0.019 µM |
| O=C1CC(c2ccsc2)(c2cccc(OCC3CCCC3)n2)NC(=O)C1Sc1ccccc1Cl (single isomer, unassigned) [Example 252, 3-(2-chlorophenyl)sulfanyl-6-[6-(cyclopentyl-methoxy)-2-pyridyl]-6-(3-thienyl)pipereidine-2,4-dione] | 0.079 µM |
| O=C1CC(c2ccsc2)(c2cccc(OCC(F)F)n2)NC(=O)C1Sc1ccccc1Cl (single isomer, unassigned) [Example 254, 3-(2-chlorophenyl)sulfanyl-6-[6-(2,2-difluoroethoxy)-2-pyridyl]-6-(3-thienyl) piperidine-2,4-dione] | 0.047 µM |
| O=C1CC(c2ccsc2)(c2cccc(Cc3ccc(F)c(F)c3)n2)NC(=O)C1Sc1ccccc1Cl (single isomer, unassigned) [Example 256, 3-((2-chlorophenyl)thio)-6-(6-(3,4-difluorobenzyl)pyridin-2-yl)-6-(thiophen-3-yl)piperidine-2,4-dione] | 0.062 µM |
| CN(c1ccc(F)cc1)c1cccc(C2(c3ccsc3)CC(=O)C(Sc3ccccc3Cl)C(=O)N2)n1 (single isomer, unassigned) [Example 262, 3-((2-chlorophenyl)thio)-6-(6-((4-fluorophenyl) (methyl)amino)pyridin-2-yl)-6-(thiophen-3-yl)piperidine-2,4-dione] | 0.104 µM |
